Test system: HBV (encapsidated HBV DNA, HepG2.2.15 cells)
Assay: HBV replication inhibition assay, BDNA assay in HepG2.2.15 cells
Type: cell-based
Outline: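 HepG2.2.15 cells (stably integrated HBV, 40,000/well) treated with serially diluted compound in 0.5% DMSO for 6 days, medium and compound refreshed at day 3. DNase-treated supernatant lysed with proteinase K; encapsidated HBV DNA quantified by bDNA, percent inhibition versus DMSO controls, EC50 by nonlinear fit.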

[1] = Hepatitis B virus, HepG2.2.15, Activity in BDNA-assay

## CCC(O)C1CN(C)C(=O)c2c3c(nn2C1)CCN(C(=O)Nc1ccc(F)c(C(F)(F)F)c1)C3 (single isomer, unassigned) [Compound 099_E1, (R*)—N-(4-fluoro-3-(trifluoromethyl)phenyl)-8-((S*)-1-hydroxypropyl)-10-methyl-11-oxo-1,3,4,7,8,9,10,11-octahydro-2H-pyrido[4′,3′:3,4]pyrazolo[1,5-a][1,4]diazepine-2-carboxamide]
Activity in BDNA-assay
  EC50: 1 to 100 nM

## C[C@@H]1Cc2nn3c(c2CN1C(=O)Nc1ccc(F)c(Cl)c1)C(=O)N(C)CC(C)(F)C3 (single isomer, unassigned) [Compound 079_D2, (3R,8S*)—N-(3-chloro-4-fluorophenyl)-8-fluoro-3,8,10-trimethyl-11-oxo-1,3,4,7,8,9,10,11-octahydro-2H-pyrido[4′,3′:3,4]pyrazolo[1,5-a][1,4]diazepine-2-carboxamide]
Activity in BDNA-assay
  EC50: 1 to 100 nM

## CN1CC(CNCC(F)F)Cn2nc3c(c2C1=O)CN(C(=O)Nc1ccc(F)c(C#N)c1F)CC3 (single isomer, unassigned) [Compound 127_E1, (R*)—N-(3-cyano-2,4-difluorophenyl)-8-(((2,2-difluoroethyl)amino)methyl)-10-methyl-11-oxo-1,3,4,7,8,9,10,11-octahydro-2H-pyrido[4′,3′:3,4]pyrazolo[1,5-a][1,4]diazepine-2-carboxamide]
Activity in BDNA-assay
  EC50: 500 to 1000 nM

## COC(=O)C1Cn2nc3c(c2C(=O)N1C)CN(C(=O)Nc1ccc(F)c(Cl)c1)CC3 (stereo not drawn) [Compound 043, methyl 2-((3-chloro-4-fluorophenyl)carbamoyl)-9-methyl-10-oxo-1,2,3,4,7,8,9,10-octahydropyrido[4′,3′:3,4]pyrazolo[1,5-a]pyrazine-8-carboxylate]
[1]
  EC50: 100 to 500 nM

## CCC(O)C1CN(C)C(=O)c2c3c(nn2C1)CCN(C(=O)Nc1cc(F)c(F)c(F)c1F)C3 (single isomer, unassigned) [Compound 105_E1, (R*)-8-((S*)-1-hydroxypropyl)-10-methyl-11-oxo-N-(2,3,4,5-tetrafluorophenyl)-1,3,4,7,8,9,10,11-octahydro-2H-pyrido[4′,3′:3,4]pyrazolo[1,5-a][1,4]diazepine-2-carboxamide]
[1]
  EC50: 1 to 100 nM

## CN1CC([S+](C)[O-])Cn2nc3c(c2C1=O)CN(C(=O)Nc1ccc(F)c(Cl)c1)CC3 (single isomer, unassigned) [Compound 026B, N-(3-chloro-4-fluoro-phenyl)-10-methyl-8-methylsulfinyl-11-oxo-1,3,4,7,8,9-hexahydropyrido[2,3]pyrazolo[2,4-b][1,4]diazepine-2-carboxamide]
Activity in BDNA-assay
  EC50: 500 to 1000 nM

## C[C@@H]1Cc2nn3c(c2CN1C(=O)Nc1ccc(F)c(Br)c1)C(=O)N(C)CC(CO)C3 (single isomer, unassigned) [Compound 086_D1, (3R,8S*)—N-(3-bromo-4-fluorophenyl)-8-(hydroxymethyl)-3,10-dimethyl-11-oxo-1,3,4,7,8,9,10,11-octahydro-2H-pyrido[4′,3′:3,4]pyrazolo[1,5-a][1,4]diazepine-2-carboxamide]
[1]
  EC50: 1 to 100 nM

## CCC(O)C1CN(C)C(=O)c2c3c(nn2C1)CCN(C(=O)Nc1ccc(F)c(C#N)c1)C3 (single isomer, unassigned) [Compound 097_E2, (S*)—N-(3-cyano-4-fluorophenyl)-8-((R*)-1-hydroxypropyl)-10-methyl-11-oxo-1,3,4,7,8,9,10,11-octahydro-2H-pyrido[4′,3′: 3,4]pyrazolo[1,5-a][1,4]diazepine-2-carboxamide]
Activity in BDNA-assay
  EC50: 100 to 500 nM

## CNCC1CN(C)C(=O)c2c3c(nn2C1)CCN(C(=O)Nc1ccc(F)c(C(F)(F)F)c1)C3 (stereo not drawn) [Compound 094, N-[4-fluoro-3-(trifluoromethyl)phenyl]-10-methyl-8-(methylaminomethyl)-11-oxo-1,3,4,7,8,9-hexahydropyrido[2,3]pyrazolo[2,4-b][1,4]diazepine-2-carboxamide]
[1]
  EC50: 100 to 500 nM

Source: patent US10975077B2 (Novira Therapeutics, Inc., priority 2016, dated 2021)
